In publication PMC3362575, “Synthesis and Biological Evaluation of Phenanthrenes as Cytotoxic Agents with Pharmacophore Modeling and ChemGPS-NP Prediction as Topo II Inhibitors” (PLoS ONE, 2012):
≈ marks a conversion by molar mass, not a printed value. Read-outs that look alike come from different tables or passages of the source.

What was measured:
[1] = tested on: A549; experiment: MTT cytotoxicity assay, A549; format: cell-based, human; conditions: Homo sapiens
Description: (§1) The cytotoxic assay of 11 naturally occurring and 19 synthesized phenanthrenes was carried out on a diverse set of human liver (HepG2 and Hep3B), oral (Ca9-22), lung (A549) and breast (MEA-MB-231 and MCF7) cancer cell lines, and a human fetal lung fibroblast (MRC-5) cell line (Tables 1 and 2).
(§2) Compounds were tested against human liver (HepG2 and Hep3B), oral (Ca9-22), lung (A549), breast (MEA-MB-231 and MCF7) cancer cell lines, and the human fetal lung fibroblast (MRC-5) cell line using an established colorimetric MTT assay protocol. The absorbance was measured at 550 nm using a microplate reader. The IC50 is the concentration of agent that reduced cell growth by 50% under the experimental conditions.

[2] = tested on: human cancer cell lines; experiment: MTT cytotoxicity assay, ranges over the cancer cell line panel; format: cell-based; conditions: for IC50: Homo sapiens
Description: as §1, §2

[3] = tested on: HepG2; experiment: MTT cytotoxicity assay, HepG2; format: cell-based, human; conditions: Homo sapiens
Description: as §1, §2

[4] = tested on: MDA-MB-231; experiment: MTT cytotoxicity assay, MDA-MB-231; format: cell-based, human; conditions: Homo sapiens
Description: as §1, §2

[5] = tested on: Hep3B; experiment: MTT cytotoxicity assay, Hep3B; format: cell-based, human; conditions: Homo sapiens, Hep3B
Description: as §1, §2

[6] = tested on: MCF-7; experiment: MTT cytotoxicity assay, MCF-7; format: cell-based, human; conditions: Homo sapiens; for IC50: MTT; for MCF-7 activity class (from IC50): MCF7, Table S3, read-out: Scale Exptl. (MCF-7 activity class)
Description: as §1, §2
The pharmacophore modeling with Catalyst HypoGen was performed via Discovery Studio 2.1 (Accelrys, San Diego, CA, USA). Twenty-nine phenanthrene derivatives were collected from the natural plant, C. arisanensis, and from chemical synthesis (Figure 2). Cytotoxicity against MCF-7 cells was determined by the MTT assay and the concentration (µg/mL) of test compound which inhibited 50% of the cancer cells (IC50) was used in the generation of the pharmacophore model. An IC50 value of >20 µg/mL was defined as 20 µg/mL. All experimental IC50 values spanned about 2–3 orders of magnitude from 0.09 to 20 µg/mL. The 2D/3D structures of compounds were generated using ChemBioOffice 2008 (Cambridge Scientic Computing, Cambridge, Massachusetts, USA) and then optimized in a Dreiding force field. The conformational ensemble of each compound was generated using the best conformational analysis method based on a CHARMM force field with a 20 kcal/mol energy threshold above the global minimum. A maximum limit of 255 conformations was used to cover maximum conformational space. The best 3D arrangements of chemical functionalities should explain the activity variations among the 29 compounds. Thirty runs with different parameters were performed for the best pharmacophore hypothesis. Four chemical features, including hydrogen-bond acceptor (HBA), hydrogen-bond donor (HBD), hydrophobic (HYD), and aromatic ring (AR) features, were also tested during the building of pharmacophore hypotheses (Table S1; Text S1). The best hypotheses were selected via a correlation and a cost analysis in Catalyst HypoGen.

[7] = tested on: MRC-5; experiment: MTT cytotoxicity assay, MRC-5 fetal lung fibroblast; format: cell-based, human; conditions: Homo sapiens, normal fetal lung fibroblast
Description: as §1, §2

[8] = tested on: Ca9-22; experiment: MTT cytotoxicity assay, Ca9-22; format: cell-based, human; conditions: Homo sapiens
Description: as §1, §2

[9] = A549, Table 2, synthesized phenanthrenes
[10] = HepG2, range over five cancer cell lines, not including HepG2, read-out: IC50 against five cancer cell lines
[11] = range over the cancer cell lines tested, read-out: IC50 against various / all human cancer cell lines
[12] = HepG2, Table 2, synthesized phenanthrenes
[13] = MDA-MB-231, Table 2, synthesized phenanthrenes
[14] = Table 2, synthesized phenanthrenes
[15] = MCF7, Table 2, synthesized phenanthrenes
[16] = MRC5, Table 2, synthesized phenanthrenes
[17] = Ca9-22, Table 2, synthesized phenanthrenes
[18] = A549, Table 1, natural phenanthrenes
[19] = HepG2, Table 1, natural phenanthrenes
[20] = MDA-MB-231, Table 1, natural phenanthrenes
[21] = MCF7, Table 1, natural phenanthrenes
[22] = MRC5, Table 1, natural phenanthrenes
[23] = Ca9-22, Table 1, natural phenanthrenes

Structure (SMILES)	IC50 [1, 9] [µg/mL]	IC50 [2, 10] [µg/mL]	IC50 [2, 11] [µg/mL]	IC50 [3, 12] [µg/mL]	IC50 [4, 13] [µg/mL]	IC50 [5, 14] [µg/mL]	IC50 [6, 15] [µg/mL]	MCF-7 activity class (from IC50) [6] [µg/mL]	IC50 [7, 16] [µg/mL]	IC50 [8, 17] [µg/mL]	melting point [°C]	activity against all human cancer cell lines ([2]; all human cancer cell lines)	IC50 [1, 18] [µg/mL]	IC50 [3, 19] [µg/mL]	IC50 [4, 20] [µg/mL]	IC50 ([5]; Table 1, natural phenanthrenes) [µg/mL]	IC50 [6, 21] [µg/mL]	IC50 [7, 22] [µg/mL]	IC50 [8, 23] [µg/mL]
COC1=CC(=O)c2ccc3cc(OC)cc(OC(C)=O)c3c2C1=O [Compound 7b, 5-acetoxy-3,7-dimethoxy-1,4-phenanthrenequinone]	1.66 ± 0.01 (≈ 5.09 µM)	0.16 to 1.66 (≈ 0.49 to 5.09 µM)	0.08 to 1.66 (≈ 0.245 to 5.09 µM)	13.2 ± 0.25 (≈ 40.5 µM)	1.61 ± 0.04 (≈ 4.93 µM)	0.6 ± 0.11 (≈ 1.84 µM)	0.53 ± 0.03 (≈ 1.62 µM)	< 1	2.64 ± 0.06 (≈ 8.09 µM)	1.55 ± 0.2 (≈ 4.75 µM)	–	–	–	–	–	–	–	–	–
COc1cc(OC)c2c3c(ccc2c1)C(=O)CC(OC)(OC)C3=O [Compound 5c, 3,3,5,7-tetramethoxy-2,3-dihydro-1,4-phenanthrenequinone]	12 ± 2.18 (≈ 36.3 µM)	–	–	> 20	19.1 ± 0.43 (≈ 57.9 µM)	13.8 ± 0.38 (≈ 41.7 µM)	11.1 ± 0.02 (≈ 33.6 µM)	1 to 20	> 20	9.07 ± 0.09 (≈ 27.5 µM)	179	–	–	–	–	–	–	–	–
COC1=CC(=O)c2ccc3cc(OC)cc(OC)c3c2C1=O [Compound 5b, 3,5,7-Trimethoxy-1,4-phenanthrenequinone]	15.7 ± 0.17 (≈ 52.7 µM)	–	–	13 ± 0.21 (≈ 43.5 µM)	19 ± 0.55 (≈ 63.6 µM)	15.9 ± 0.21 (≈ 53.5 µM)	14.4 ± 0.28 (≈ 48.3 µM)	1 to 20	> 20	15.25 ± 0.05 (≈ 51.1 µM)	–	marginal activities	–	–	–	–	–	–	–
COC1=CC(=O)c2ccc3cc(OC)cc(O)c3c2C1=O [Compound 6b, 5-Hydroxy-3,7-dimethoxy-1,4-phenanthrenequinone]	0.99 ± 0.02 (≈ 3.48 µM)	–	0.08 to 1.66 (≈ 0.281 to 5.84 µM)	0.23 ± 0.01 (≈ 0.809 µM)	1.06 ± 0.03 (≈ 3.73 µM)	0.34 (≈ 1.2 µM)	0.26 (≈ 0.915 µM)	–	2.14 ± 0.08 (≈ 7.53 µM)	0.68 (≈ 2.39 µM)	–	–	–	–	–	–	–	–	–
COC1=CC(=O)c2ccc3cc(OC)c(OC)c(OC(C)=O)c3c2C1=O [Compound 7a, 5-Acetoxy-3,6,7-trimethoxy-1,4-phenanthrenequinone]	0.6 ± 0.01 (≈ 1.68 µM)	0.16 to 1.66 (≈ 0.449 to 4.66 µM)	0.08 to 1.66 (≈ 0.225 to 4.66 µM)	11.3 ± 0.14 (≈ 31.7 µM)	1.13 ± 0.05 (≈ 3.17 µM)	0.36 ± 0.14 (≈ 1.01 µM)	0.16 (≈ 0.449 µM)	< 1	1.14 ± 0.01 (≈ 3.2 µM)	0.84 ± 0.05 (≈ 2.36 µM)	–	–	–	–	–	–	–	–	–
COc1cc(O)c2c(ccc3c(OC)ccc(OC)c32)c1 [Compound 9b, 5-hydroxy-1,4,7-trimethoxy-phenanthrene]	> 20	–	–	> 20	> 20	> 20	> 20	> 20	> 20	> 20	71	–	–	–	–	–	–	–	–
COC1=CC(=O)c2ccc3c(-c4c(OC)c(OC)c(OC)c5c6c(ccc45)C(OC)=CC(=O)C6=O)c(OC)c(OC)c(OC)c3c2C1=O [Compound 5f, 3,5,6,7,1′,5′,6′,7′-octamethoxy-[8,8′]bi-1,4,5′,6′-phenanthrenequinone]	> 20	–	–	19.6 ± 0.74 (≈ 30 µM)	4.74 ± 0.02 (≈ 7.24 µM)	7.88 ± 0.19 (≈ 12 µM)	14.8 ± 0.21 (≈ 22.6 µM)	1 to 20	> 20	4.57 ± 0.03 (≈ 6.98 µM)	268	–	–	–	–	–	–	–	–
COc1cc(OC)c2c3c(ccc2c1)C(=O)C=CC3=O [Compound 4b, 5,7-Dimethoxy-1,4-phenanthrenequinone]	> 20	–	–	18.64 ± 0.14 (≈ 69.5 µM)	7.09 ± 0.01 (≈ 26.4 µM)	12.1 ± 0.33 (≈ 45.1 µM)	15.63 ± 0.01 (≈ 58.3 µM)	1 to 20	> 20	3.45 ± 0.03 (≈ 12.9 µM)	121	–	–	–	–	–	–	–	–
COc1cc(O)c(-c2c(O)cc(OC)c3c2CCc2cc(O)ccc2-3)c2c1-c1ccc(O)cc1CC2 [CA-11]	–	–	–	–	–	–	–	1 to 20	–	–	–	–	7.4 ± 0.01 (≈ 15.3 µM)	7.17 ± 0.35 (≈ 14.9 µM)	7.42 ± 0.03 (≈ 15.4 µM)	6.28 ± 0.26 (≈ 13 µM)	4.84 ± 0.89 (≈ 10 µM)	13.2 ± 0.33 (≈ 27.3 µM)	5.86 ± 0.06 (≈ 12.1 µM)
COc1cc(OC)c2c(ccc3c(OC)ccc(OC)c32)c1 [Compound 3b, 1,4,5,7-Tetramethoxy-phenanthrene]	> 20	–	–	> 20	> 20	> 20	> 20	> 20	> 20	18.44 ± 0.11 (≈ 61.8 µM)	–	–	–	–	–	–	–	–	–
COc1cc2c(cc1O)CCc1cc(O)cc(OC)c1-2 [CA-9]	–	–	–	–	–	–	–	1 to 20	–	–	–	–	18.1 ± 0.26 (≈ 66.5 µM)	> 20	19.5 ± 0.58 (≈ 71.5 µM)	12.9 ± 0.32 (≈ 47.3 µM)	10.2 ± 0.27 (≈ 37.6 µM)	> 20	13 ± 0.42 (≈ 47.7 µM)
COc1cccc2c1C(=O)c1c(O)c3c(c(O)c1C2=O)C[C@@](O)(C(=O)CO)C[C@@H]3O[C@H]1C[C@H](N)[C@H](O)[C@H](C)O1 [Doxo, Doxorubicin, reference compound]	0.63 ± 0.15 (≈ 1.16 µM)	–	–	–	1.12 ± 0.05 (≈ 2.06 µM)	0.42 ± 0.01 (≈ 0.773 µM)	0.35 ± 0.09 (≈ 0.644 µM)	–	–	0.14 ± 0.04 (≈ 0.258 µM)	–	–	0.81 ± 0.04 (≈ 1.49 µM)	0.22 ± 0.04 (≈ 0.405 µM)	0.74 ± 0.01 (≈ 1.36 µM)	0.49 (≈ 0.902 µM)	0.67 ± 0.03 (≈ 1.23 µM)	1.94 ± 0.02 (≈ 3.57 µM)	0.16 ± 0.02 (≈ 0.294 µM)
